Several values for one entry are separate records, joined by “and”; a condition that tells them apart may be missing. Equal values may be shown once. Inconclusive results and toxic doses are left out.

The assay relates to L1210 leukemia ip in BDF1 mice, survival T/C. Nature of the assay: NCI In Vivo Anticancer Drug Screen. Data for tumor model L1210 Leukemia (intraperitoneal) in B6D2F1 (BDF1) mice. The conditions noted are these: endpoint: mean survival time, higher = longer survival. The procedure, abridged:
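Read-out is survival time, reported as the treated-group measurement over the vehicle-control measurement.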

Where [1] appears, read: dose: 100.0 mg/kg/injection, schedule: Q01DX001 (ip), vehicle: carboxymethylcellulose (CMC).
The mark [2] stands for this setting: dose: 75.0 mg/kg/injection, schedule: Q01DX001 (ip), vehicle: saline.
The mark [3] stands for this setting: dose: 25.0 mg/kg/injection, schedule: Q04DX003 (ip), vehicle: Klucel (hydroxypropylcellulose) (HPC).
Where [4] appears, read: dose: 50.0 mg/kg/injection, schedule: Q04DX003 (ip), vehicle: Klucel (hydroxypropylcellulose) (HPC).
Setting [5] is: dose: 100.0 mg/kg/injection, schedule: Q04DX003 (ip), vehicle: Klucel (hydroxypropylcellulose) (HPC).
[6] abbreviates: dose: 200.0 mg/kg/injection, schedule: Q04DX003 (ip), vehicle: Klucel (hydroxypropylcellulose) (HPC).
The mark [7] stands for this setting: dose: 100.0 mg/kg/injection, schedule: Q04DX002 (ip), vehicle: Klucel (hydroxypropylcellulose) (HPC).
Setting [8] is: dose: 200.0 mg/kg/injection, schedule: Q04DX002 (ip), vehicle: Klucel (hydroxypropylcellulose) (HPC).
Setting [9] is: dose: 400.0 mg/kg/injection, schedule: Q04DX002 (ip), vehicle: Klucel (hydroxypropylcellulose) (HPC).

With `CCOc1cc(C=Nc2cc(Cl)c(O)c(Cl)c2)ccc1N(CCCl)CCCl`, the T/C is, setting by setting: (dose: 5.0 mg/kg/injection, schedule: Q01DX009 (ip), vehicle: carboxymethylcellulose (CMC)) 114 % of control; (dose: 5.0 mg/kg/injection, schedule: Q01DX009 (ip), vehicle: saline) 105 % of control; (dose: 10.0 mg/kg/injection, schedule: Q01DX009 (ip), vehicle: saline) 106 % of control; (dose: 13.0 mg/kg/injection, schedule: Q01DX009 (ip), vehicle: carboxymethylcellulose (CMC)) 120 % of control; (dose: 25.0 mg/kg/injection, schedule: Q01DX001 (ip), vehicle: saline) 109 % of control; (dose: 44.0 mg/kg/injection, schedule: Q01DX001 (ip), vehicle: carboxymethylcellulose (CMC)) 118 % of control. Besides, the T/C reads like this: (dose: 44.0 mg/kg/injection, schedule: Q01DX009 (ip), vehicle: other) 113 % of control; (dose: 50.0 mg/kg/injection, schedule: Q01DX001 (ip), vehicle: saline) 116 % of control; under setting [1], 150 % of control.
For `CC(C)=NNC(=O)c1ccccn1`, the T/C (dose: 50.0 mg/kg/injection, schedule: Q01DX001 (ip), vehicle: carboxymethylcellulose (CMC)) is 101 % of control; the T/C (dose: 50.0 mg/kg/injection, schedule: Q01DX009 (ip), vehicle: carboxymethylcellulose (CMC)) was 104 % of control; the T/C (dose: 50.0 mg/kg/injection, schedule: Q04DX003 (ip), vehicle: carboxymethylcellulose (CMC)) was 100 % of control; the T/C under setting [1] was 104 % of control; the T/C (dose: 100.0 mg/kg/injection, schedule: Q01DX009 (ip), vehicle: carboxymethylcellulose (CMC)) was 104 % of control and 106 % of control; the T/C (dose: 100.0 mg/kg/injection, schedule: Q04DX003 (ip), vehicle: carboxymethylcellulose (CMC)) was 115 % of control. Besides, under “dose: 200.0 mg/kg/injection, schedule: Q01DX001 (ip), vehicle: carboxymethylcellulose (CMC)”, the T/C is 113 % of control.
`CC(=O)OCC(=O)[C@@]1(O)CC[C@H]2[C@@H]3CCC4=CC(=O)[C@H](C)C[C@]4(C)[C@H]3[C@@H](O)C[C@@]21C`: the T/C was 111 % of control (dose: 50.0 mg/kg/injection, schedule: Q01DX001 (sc), vehicle: steriod suspending solution); 102 % of control (dose: 100.0 mg/kg/injection, schedule: Q01DX001 (sc), vehicle: steriod suspending solution); 100 % of control (dose: 100.0 mg/kg/injection, schedule: Q04DX003 (sc), vehicle: steriod suspending solution); 102 % of control (dose: 200.0 mg/kg/injection, schedule: Q01DX001 (sc), vehicle: steriod suspending solution); 105 % of control (dose: 200.0 mg/kg/injection, schedule: Q04DX003 (sc), vehicle: steriod suspending solution); 110 % of control (dose: 400.0 mg/kg/injection, schedule: Q01DX001 (sc), vehicle: steriod suspending solution). Under “dose: 400.0 mg/kg/injection, schedule: Q04DX003 (sc), vehicle: steriod suspending solution”, the T/C was 107 % of control.
`C/C=C/CC1(CC)C(=O)NC(=S)NC1=O`: the T/C was 107 % of control under setting [2] and 113 % of control (dose: 150.0 mg/kg/injection, schedule: Q01DX001 (ip), vehicle: saline).
Consider `CCOC(=O)Oc1c(OC)cc(C(=O)O[C@@H]2C[C@@H]3CN4CCc5c([nH]c6cc(OC)ccc56)[C@H]4C[C@@H]3[C@H](C(=O)OC)[C@H]2OC)cc1OC`, for which the T/C is 101 % of control under setting [3], 106 % of control under setting [4], 95 % of control under setting [5] and 98 % of control under setting [6].
Turning to `O=C1c2ccccc2-c2cccc3cccc1c23`, the T/C is 94 % of control (dose: 50.0 mg/kg/injection, schedule: Q01DX001 (ip), vehicle: saline sonified); 95 % of control (dose: 100.0 mg/kg/injection, schedule: Q01DX001 (ip), vehicle: saline sonified); 105 % of control (dose: 100.0 mg/kg/injection, schedule: Q01DX009 (ip), vehicle: gum acacia); 97 % of control (dose: 200.0 mg/kg/injection, schedule: Q01DX001 (ip), vehicle: saline sonified); 96 % of control (dose: 200.0 mg/kg/injection, schedule: Q01DX009 (ip), vehicle: gum acacia); 102 % of control (dose: 400.0 mg/kg/injection, schedule: Q01DX009 (ip), vehicle: gum acacia).
As for `c1cc[c]([Sn]([c]2ccccc2)[c]2ccccc2)cc1.c1ccc([Si](c2ccccc2)c2ccccc2)cc1`, the T/C was 86 % of control (dose: 64.0 mg/kg/injection, schedule: Q04DX002 (ip), vehicle: saline with Tween-80); 86 % of control (dose: 160.0 mg/kg/injection, schedule: Q04DX002 (ip), vehicle: saline with Tween-80); 86 % of control (dose: 400.0 mg/kg/injection, schedule: Q04DX002 (ip), vehicle: saline with Tween-80).
As for `CN(C)C(=O)Nc1cccc(OC(=O)NC2CC2)c1`, the T/C reads like this: (dose: 100.0 mg/kg/injection, schedule: Q04DX003 (ip), vehicle: saline with Tween-80) 96 % of control; (dose: 200.0 mg/kg/injection, schedule: Q04DX003 (ip), vehicle: saline with Tween-80) 95 % of control; (dose: 400.0 mg/kg/injection, schedule: Q04DX003 (ip), vehicle: saline with Tween-80) 90 % of control.
As to `CCCCNC(C)(C)C(S)c1ccc(Cl)cc1` (stereo not drawn), the T/C reads like this: (dose: 12.0 mg/kg/injection, schedule: Q01DX009 (ip), vehicle: Klucel (hydroxypropylcellulose) (HPC)) 104 % of control; (dose: 25.0 mg/kg/injection, schedule: Q01DX009 (ip), vehicle: Klucel (hydroxypropylcellulose) (HPC)) 108 % of control.
Turning to `CCN(CC)CC(=O)N1Cc2ccccc2Cc2ccccc2C1`, the T/C reads like this: under setting [3], 92 % of control; under setting [4], 100 % of control; under setting [5], 107 % of control.
Turning to `CCNC(C1CCCCC1)C(C)OC(=O)c1ccc(N)cc1` (stereo not drawn), the T/C under setting [2] was 98 % of control.
In the case of `CCC[CH2][Hg][O]C(C)=O`, the T/C was 89 % of control (dose: 3.13 mg/kg/injection, schedule: Q01DX009 (ip), vehicle: saline sonified); 89 % of control (dose: 6.25 mg/kg/injection, schedule: Q01DX009 (ip), vehicle: saline sonified); 100 % of control (dose: 6.25 mg/kg/injection, schedule: Q04DX003 (ip), vehicle: Klucel (hydroxypropylcellulose) (HPC)); 87 % of control (dose: 12.5 mg/kg/injection, schedule: Q01DX009 (ip), vehicle: saline sonified); 92 % of control (dose: 12.5 mg/kg/injection, schedule: Q04DX003 (ip), vehicle: Klucel (hydroxypropylcellulose) (HPC)).
In the case of `CN(Cc1ccccc1)C(=O)NC(C)(C)C`, the T/C under setting [7] was 121 % of control, the T/C under setting [8] is 102 % of control and the T/C under setting [9] is 105 % of control.
`O=C(c1ccccc1)C1(c2ccccc2)SSC1(C(=O)c1ccccc1)c1ccccc1` (stereo not drawn): the T/C is, setting by setting: (dose: 100.0 mg/kg/injection, schedule: Q04DX003 (ip), vehicle: saline) 95 % of control; (dose: 200.0 mg/kg/injection, schedule: Q04DX003 (ip), vehicle: saline) 92 % of control; (dose: 400.0 mg/kg/injection, schedule: Q04DX003 (ip), vehicle: saline) 97 % of control.
Turning to `CC1=C(C)Cc2c(-c3ccc(Cl)cc3)oc(-c3ccc(Cl)cc3)c2C1`, the T/C under setting [5] was 100 % of control; the T/C under setting [6] is 97 % of control; the T/C (dose: 400.0 mg/kg/injection, schedule: Q04DX003 (ip), vehicle: Klucel (hydroxypropylcellulose) (HPC)) is 94 % of control.
For the compound `CCOC(=O)C1C(C)NC(=S)NC1c1ccccc1` (stereo not drawn), the T/C under setting [7] is 90 % of control, the T/C under setting [8] was 93 % of control and the T/C under setting [9] is 93 % of control.
On to `C#CC1(OCC(O)CO)CCCCC1` (stereo not drawn), for which the T/C by setting is: (dose: 25.0 mg/kg/injection, schedule: Q01DX009 (ip), vehicle: water) 115 % of control; (dose: 50.0 mg/kg/injection, schedule: Q01DX009 (ip), vehicle: water) 110 % of control; (dose: 100.0 mg/kg/injection, schedule: Q01DX009 (ip), vehicle: water) 100 % of control; (dose: 200.0 mg/kg/injection, schedule: Q01DX009 (ip), vehicle: water) 97 % of control.

(Values after PubChem BioAssay AID248 (DTP/NCI, 2004).)
